According to ChEMBL document CHEMBL3804825, “Synthesis, structure-activity relationships, and biological evaluation of a series of benzamides as potential multireceptor antipsychotics” (Bioorg Med Chem Lett, 2016):
The source made the active and inactive calls. The rule behind the calls is not given here.

Columns and labels:
[1] = biological target: T1, 5-hydroxytryptamine receptor 1A (Homo sapiens, UniProt P08908); assay: Agonistic activity at human 5-HT1A receptor measured after 60 mins by Ultra Lance cAMP assay; assay type: functional
T1 sequence (P08908 whole entry): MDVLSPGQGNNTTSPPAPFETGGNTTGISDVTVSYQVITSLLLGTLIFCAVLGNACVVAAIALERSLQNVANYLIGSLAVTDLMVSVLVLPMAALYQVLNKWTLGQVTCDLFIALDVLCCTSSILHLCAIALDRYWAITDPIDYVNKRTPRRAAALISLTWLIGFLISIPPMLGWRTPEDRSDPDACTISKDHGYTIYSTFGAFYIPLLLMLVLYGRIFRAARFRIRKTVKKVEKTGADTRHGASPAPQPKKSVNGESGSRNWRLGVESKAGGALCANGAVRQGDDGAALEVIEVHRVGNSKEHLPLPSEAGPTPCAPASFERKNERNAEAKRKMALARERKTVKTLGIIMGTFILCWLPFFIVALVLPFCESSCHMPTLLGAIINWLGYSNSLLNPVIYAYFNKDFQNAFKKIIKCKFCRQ

Mus musculus [2] = assay: Antipsychotic activity in mouse assessed as inhibition of PCP-induced hyperactivity at 10 mg/kg, ip administered 45 mins prior testing measured after 60 mins; assay type: functional, organism-based
D(2) dopamine receptor = D(2) dopamine receptor (Homo sapiens, UniProt P14416); assay: Antagonistic activity at human dopamine D2 receptor measured after 60 mins by Ultra Lance cAMP assay; assay type: functional
[3] = biological target: 5-hydroxytryptamine receptor 2A (Homo sapiens, UniProt P28223); assay: Antagonistic activity at human 5-HT2A receptor assessed as calcium flux after 10 mins by FLIPR assay; assay type: functional
[4] = Metabolic stability in human liver microsomes assessed as compound loss at 2 uM measured after 30 mins in presence of NADPH by LC-MS/MS analysis; assay type: ADME; conditions: read-out: Drug degradation
Mus musculus [5] = assay: Toxicity in ig dosed mouse assessed as induction of catalepsy by horizontal bar method; assay type: organism-based; conditions: in vivo, po
Mus musculus [6] = assay: Toxicity in mouse assessed as induction of sedation at 10 mg/kg, ip administered 45 mins prior testing measured after 60 mins; assay type: organism-based; conditions: in vivo, 1 h
Mus musculus [7] = assay: Antipsychotic activity in ig dosed mouse assessed as inhibition of PCP-induced hyperactivity; assay type: functional; conditions: for ED50: po
Mus musculus [8] = assay: Toxicity in mouse assessed as induction of sedation at 1 mg/kg, ip administered 45 mins prior testing measured after 60 mins; assay type: organism-based; conditions: in vivo, 1 h
Mus musculus [9] = assay: Antipsychotic activity in mouse assessed as inhibition of PCP-induced hyperactivity at 1 mg/kg, ip administered 45 mins prior testing measured after 60 mins; assay type: functional, organism-based
[10] = biological target: T2, 5-hydroxytryptamine receptor 2C (Homo sapiens, UniProt P28335); assay: Antagonistic activity at 5-HT2c receptor (unknown origin) after 10 mins by FLIPR assay
T2 sequence (P28335 whole entry): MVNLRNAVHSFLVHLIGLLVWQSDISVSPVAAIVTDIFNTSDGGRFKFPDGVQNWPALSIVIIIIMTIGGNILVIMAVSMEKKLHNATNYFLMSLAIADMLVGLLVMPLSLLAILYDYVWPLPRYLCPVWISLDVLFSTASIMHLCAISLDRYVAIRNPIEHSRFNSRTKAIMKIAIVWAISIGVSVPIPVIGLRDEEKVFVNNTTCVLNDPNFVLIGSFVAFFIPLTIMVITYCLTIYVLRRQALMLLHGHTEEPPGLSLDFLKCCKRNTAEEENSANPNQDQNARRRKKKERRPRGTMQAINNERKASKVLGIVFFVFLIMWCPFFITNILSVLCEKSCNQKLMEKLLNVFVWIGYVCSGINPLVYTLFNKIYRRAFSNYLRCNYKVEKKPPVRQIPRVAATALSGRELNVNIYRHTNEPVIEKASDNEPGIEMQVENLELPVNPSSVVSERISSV

[11] = biological target: T3, Alpha-1A adrenergic receptor (Homo sapiens, UniProt P35348); assay: Antagonistic activity at alpha-1A adrenergic receptor (unknown origin) after 10 mins by FLIPR assay
T3 sequence (P35348 whole entry): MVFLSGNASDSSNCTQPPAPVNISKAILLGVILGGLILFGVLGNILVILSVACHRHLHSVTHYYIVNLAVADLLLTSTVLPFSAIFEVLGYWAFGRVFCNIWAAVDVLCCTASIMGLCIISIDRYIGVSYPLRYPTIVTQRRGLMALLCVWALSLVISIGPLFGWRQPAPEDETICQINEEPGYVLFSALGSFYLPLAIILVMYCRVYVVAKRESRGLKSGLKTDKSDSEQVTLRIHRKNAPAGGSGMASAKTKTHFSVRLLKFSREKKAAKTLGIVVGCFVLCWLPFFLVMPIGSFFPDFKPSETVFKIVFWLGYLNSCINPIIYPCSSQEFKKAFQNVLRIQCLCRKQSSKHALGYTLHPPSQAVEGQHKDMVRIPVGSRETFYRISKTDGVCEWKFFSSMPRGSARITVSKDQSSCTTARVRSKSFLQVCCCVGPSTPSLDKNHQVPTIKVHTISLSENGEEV

Histamine H1 receptor = Histamine H1 receptor (Homo sapiens, UniProt P35367); assay: Antagonistic activity at histamine1 receptor (unknown origin) after 10 mins by FLIPR assay
in vivo = conditions: mouse, po
Description: Therapeutic index, ratio of ED50 for toxicity in orally dosed mouse by catalepsy test to ED50 for antipsychotic activity in mouse

[12] = biological target: Voltage-gated inwardly rectifying potassium channel KCNH2 (Homo sapiens, UniProt Q12809)
Chain of Voltage-gated inwardly rectifying potassium channel KCNH2 (Q12809 whole entry): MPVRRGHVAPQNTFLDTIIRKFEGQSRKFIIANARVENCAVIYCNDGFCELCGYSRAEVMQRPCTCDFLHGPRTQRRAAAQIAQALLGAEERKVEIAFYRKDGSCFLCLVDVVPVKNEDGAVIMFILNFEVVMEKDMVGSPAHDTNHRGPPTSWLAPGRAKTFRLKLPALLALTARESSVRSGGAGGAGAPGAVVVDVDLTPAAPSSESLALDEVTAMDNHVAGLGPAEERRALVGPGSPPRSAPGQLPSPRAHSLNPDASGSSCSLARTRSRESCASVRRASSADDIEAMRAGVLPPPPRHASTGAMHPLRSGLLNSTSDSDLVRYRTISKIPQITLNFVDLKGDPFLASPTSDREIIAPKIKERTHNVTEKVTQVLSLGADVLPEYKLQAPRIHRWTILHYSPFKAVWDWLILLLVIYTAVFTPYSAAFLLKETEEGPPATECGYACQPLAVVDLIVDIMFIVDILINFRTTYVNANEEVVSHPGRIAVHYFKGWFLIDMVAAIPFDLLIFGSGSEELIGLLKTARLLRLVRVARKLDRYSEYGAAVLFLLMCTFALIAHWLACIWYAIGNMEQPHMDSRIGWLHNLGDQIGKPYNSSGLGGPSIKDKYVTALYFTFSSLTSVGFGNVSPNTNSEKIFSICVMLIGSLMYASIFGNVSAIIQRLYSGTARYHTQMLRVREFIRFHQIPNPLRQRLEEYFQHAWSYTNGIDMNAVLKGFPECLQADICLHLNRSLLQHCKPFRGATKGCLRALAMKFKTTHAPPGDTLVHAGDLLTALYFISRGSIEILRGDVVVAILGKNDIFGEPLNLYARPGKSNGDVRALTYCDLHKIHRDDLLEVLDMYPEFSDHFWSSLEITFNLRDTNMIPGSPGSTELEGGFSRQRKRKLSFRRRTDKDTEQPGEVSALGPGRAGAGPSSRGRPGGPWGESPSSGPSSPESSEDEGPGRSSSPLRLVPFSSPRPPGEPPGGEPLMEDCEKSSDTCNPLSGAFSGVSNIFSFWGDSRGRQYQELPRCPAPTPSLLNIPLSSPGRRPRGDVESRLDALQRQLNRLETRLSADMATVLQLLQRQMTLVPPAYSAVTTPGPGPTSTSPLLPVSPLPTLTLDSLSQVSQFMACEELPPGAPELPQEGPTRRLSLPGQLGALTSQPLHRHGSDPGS
Description: Inhibition of human ERG after 10 mins

Chain of 5-hydroxytryptamine receptor 2A (P28223 whole entry): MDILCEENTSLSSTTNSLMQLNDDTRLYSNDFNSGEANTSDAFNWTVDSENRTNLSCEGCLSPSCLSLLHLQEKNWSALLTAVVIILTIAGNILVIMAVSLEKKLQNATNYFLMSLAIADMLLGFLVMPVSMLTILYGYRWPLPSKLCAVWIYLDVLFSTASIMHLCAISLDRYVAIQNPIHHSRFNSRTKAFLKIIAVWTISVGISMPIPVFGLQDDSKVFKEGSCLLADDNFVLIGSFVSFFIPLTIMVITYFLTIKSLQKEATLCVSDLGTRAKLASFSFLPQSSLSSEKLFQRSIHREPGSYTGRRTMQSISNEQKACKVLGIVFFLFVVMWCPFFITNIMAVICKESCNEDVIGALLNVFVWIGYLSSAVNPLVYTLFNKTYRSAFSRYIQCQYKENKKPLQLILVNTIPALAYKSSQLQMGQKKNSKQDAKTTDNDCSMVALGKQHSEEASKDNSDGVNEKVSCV
Chain of D(2) dopamine receptor (P14416 whole entry): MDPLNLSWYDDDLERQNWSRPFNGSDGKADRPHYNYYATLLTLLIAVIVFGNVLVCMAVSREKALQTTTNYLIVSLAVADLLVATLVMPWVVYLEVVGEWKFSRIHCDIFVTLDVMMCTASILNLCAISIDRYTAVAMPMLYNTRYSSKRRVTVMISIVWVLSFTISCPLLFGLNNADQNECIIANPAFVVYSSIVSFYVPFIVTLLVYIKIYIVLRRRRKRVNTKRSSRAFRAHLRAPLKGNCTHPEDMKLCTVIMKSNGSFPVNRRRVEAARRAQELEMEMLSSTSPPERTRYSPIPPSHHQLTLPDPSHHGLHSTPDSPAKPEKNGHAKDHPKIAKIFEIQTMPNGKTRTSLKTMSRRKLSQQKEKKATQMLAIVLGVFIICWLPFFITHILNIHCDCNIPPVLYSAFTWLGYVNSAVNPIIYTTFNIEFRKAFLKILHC
Chain of Histamine H1 receptor (P35367 whole entry): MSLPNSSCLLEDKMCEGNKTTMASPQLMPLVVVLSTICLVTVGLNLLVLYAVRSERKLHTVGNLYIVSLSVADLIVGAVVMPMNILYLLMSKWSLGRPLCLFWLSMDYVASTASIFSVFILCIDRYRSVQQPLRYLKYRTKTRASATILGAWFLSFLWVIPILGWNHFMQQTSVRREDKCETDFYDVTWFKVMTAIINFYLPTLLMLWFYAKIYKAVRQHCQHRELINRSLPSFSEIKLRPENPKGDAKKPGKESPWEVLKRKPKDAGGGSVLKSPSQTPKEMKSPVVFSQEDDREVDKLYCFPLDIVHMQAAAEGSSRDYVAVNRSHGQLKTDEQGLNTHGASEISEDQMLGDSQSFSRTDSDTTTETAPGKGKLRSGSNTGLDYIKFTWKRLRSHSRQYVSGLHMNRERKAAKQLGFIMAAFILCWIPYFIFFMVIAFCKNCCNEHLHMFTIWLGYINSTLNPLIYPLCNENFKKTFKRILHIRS

Compound | EC50 [1] | IC50 (D(2) dopamine receptor) | IC50 [3] | other results
CNC(=O)c1cc(OCCCCN2CCN(c3cccc(Cl)c3Cl)CC2)ccc1F | 7.2 nM | 39.4 nM | 360 nM | 
CNC(=O)c1cc(F)cc(OCCCCN2CCN(c3cccc(Cl)c3Cl)CC2)c1 | 361 nM | 1580 nM | 1320 nM | 
CNC(=O)c1cccc(OCCCCN2CCN(c3cccc(Cl)c3Cl)CC2)c1OC | 120 nM | 202 nM | 720 nM | 
CNC(=O)c1ccc(OC)c(OCCCCN2CCN(c3cccc(Cl)c3Cl)CC2)c1 | 26 nM | 12 nM | 840 nM | 
CNC(=O)c1cc(OCCCCN2CCC(c3noc4cc(F)ccc34)CC2)ccc1F | 13 nM | 23 nM | 15 nM | ED50 (Mus musculus [5]): 7.04 mg/kg; Activity (Mus musculus [6]): Toxic; inhibition (Mus musculus [7]): Dose-dependent effect; ED50 (Mus musculus [7]): 0.11 mg/kg; inhibition (Mus musculus [2]): Active; metabolised at 0.5 h, 2 µM [4]: 14%; Activity (Mus musculus [8]): Non-toxic; inhibition (Mus musculus [9]): Active; IC50 [10]: 270 nM; IC50 [11]: 120 nM; IC50 (Histamine H1 receptor): 972 nM
CNC(=O)c1ccc(Cl)c(OCCCCN2CCN(c3cccc(Cl)c3Cl)CC2)c1 | > 10000 nM | 58.5 nM | 1380 nM | 
CNC(=O)c1cccc(OCCCCN2CCN(c3cccc(Cl)c3Cl)CC2)c1F | 301 nM | 171 nM | 30.3 nM | 
Cc1nc2n(c(=O)c1CCN1CCC(c3noc4cc(F)ccc34)CC1)CCCC2 [RISPERIDONE] |  |  |  | ED50 (Mus musculus [5]): 0.3 mg/kg
CNC(=O)c1cc(OCCCCN2CCN(c3cccc4c3OC(F)(F)O4)CC2)ccc1F | 8.2 nM | 30 nM | 1900 nM | 
CNC(=O)c1cc(OCCCCN2CCN(c3cccc(Cl)c3Cl)CC2)cc(C(C)=O)c1 | 137 nM | 37.7 nM | 494 nM | 
CNC(=O)c1cccc(OCCCCN2CCC(c3noc4cc(F)ccc34)CC2)c1 | 13 nM | 8.5 nM | 46 nM | ED50 (Mus musculus [5]): 6.76 mg/kg; Activity (Mus musculus [6]): Toxic; inhibition (Mus musculus [7]): Dose-dependent effect; ED50 (Mus musculus [7]): 0.06 mg/kg; inhibition (Mus musculus [2]): Active; selectivity ratio (in vivo): 113; metabolised at 0.5 h, 2 µM [4]: 3%; Activity (Mus musculus [8]): Non-toxic; IC50 [12]: 1030 nM; inhibition (Mus musculus [9]): Active; IC50 [10]: 190 nM; IC50 [11]: 35 nM; IC50 (Histamine H1 receptor): 2560 nM
CNC(=O)c1ccccc1OCCCCN1CCN(c2cccc(Cl)c2Cl)CC1 | 309 nM | 167 nM | 2200 nM | 
CNC(=O)c1cccc(OCCCCN2CCN(c3cccc(Cl)c3Cl)CC2)c1C | 122 nM | 3600 nM | 860 nM | 

Second part, led by results:

EC50 [1] | IC50 (D(2) dopamine receptor) | IC50 [3] | Compound | other results
2.7 nM | 12 nM | 35 nM | CNC(=O)c1cc(OCCCCN2CCN(c3nsc4ccccc34)CC2)ccc1F | inhibition (Mus musculus [2]): inactive; metabolised at 0.5 h, 2 µM [4]: 47%
464 nM | 16.8 nM | 1100 nM | CCCCCNC(=O)c1cccc(OCCCCN2CCN(c3cccc(Cl)c3Cl)CC2)c1 | 
4.3 nM | 10 nM | 180 nM | CNC(=O)c1cccc(OCCCCN2CCN(c3nsc4ccccc34)CC2)c1 | 
34.4 nM | 34.9 nM | 340 nM | CNC(=O)c1cc(OCCCCN2CCN(c3cccc(Cl)c3Cl)CC2)ccc1Cl | 
26 nM |  | 1100 nM | NC(=O)c1cccc(OCCCCN2CCN(c3cccc(Cl)c3Cl)CC2)c1 | 
> 100 nM | 98.4 nM | 1050 nM | CC(=O)Nc1cccc(OCCCCN2CCN(c3cccc(Cl)c3Cl)CC2)c1 | 
74 nM | 9.8 nM | 460 nM | CNC(=O)c1cc(OCCCCN2CCN(c3cccc(Cl)c3Cl)CC2)ccc1C | 
6 nM | 43 nM | 80 nM | CNC(=O)c1cc(OCCCCN2CCN(c3cccc4sccc34)CC2)ccc1F | inhibition (Mus musculus [2]): inactive; metabolised at 0.5 h, 2 µM [4]: 51%
5.1 nM | 91 nM | 216 nM | CNC(=O)c1cccc(OCCCCN2CCN(c3cccc4sccc34)CC2)c1 | 
97.2 nM | 89.8 nM | 1400 nM | CNC(=O)c1cc(C)cc(OCCCCN2CCN(c3cccc(Cl)c3Cl)CC2)c1 | 
12 nM | 4.1 nM | > 10000 nM | CNC(=O)c1cccc(OCCCCN2CCN(c3cccc4c3OC(F)(F)O4)CC2)c1 | 
24 nM | 32 nM | 1100 nM | CNC(=O)c1cccc(OCCCCN2CCN(c3cccc(Cl)c3Cl)CC2)c1 | 
122 nM | 70 nM | 820 nM | CNC(=O)c1ccc(OCCCCN2CCN(c3cccc(Cl)c3Cl)CC2)cc1 | 
101 nM | 116 nM | 670 nM | CCNC(=O)c1cccc(OCCCCN2CCN(c3cccc(Cl)c3Cl)CC2)c1 | 
